This note sets out measurements from a melting point compilation (Tetko et al.; mined from patent text by program, amines drawn as free bases though some values may be those of a salt).

Molecules are shown by their SMILES.

Regarding `CC(C)(C)OC(=O)n1[nH]c2c(cnc3c([N+](=O)[O-])cccc32)c1=O`, the melting point is greater than 250 °C.
For the molecule `COCCN1CC(c2ccccc2)NC1=S` (stereo unspecified), the melting point was in the range of 76 to 78 °C.
Molecule `O=C(O)Cc1csc(Nc2ccc(Cl)c(C(F)(F)F)c2)n1` showed a melting point of 108 to 112 °C.
Under `COc1cc(F)c(C(=O)Cc2c(Cl)cncc2Cl)cc1OC1CCCC1` stands 116 °C; under `C=CCc1cc(C(C)=O)c(O)cc1OCCCCCCCC#N`, 46 to 48 °C.
For `c1ccc(-c2nnc(-c3ccccn3)o2)cc1`, the melting point was in the range of 127 to 128 °C.
In turn, `CC(=O)N(C(=O)N1CC(c2ccc(Cl)cc2)C(c2ccc(Cl)cc2)=N1)c1ccc(C(F)(F)F)cc1` (stereo unspecified) returned a melting point of 166 to 168 °C.
For the molecule `CC(C)(C)c1cc(C(c2ccccc2)N2CCCCC2)c(O)c(C(C)(C)C)c1` (stereo unspecified), the melting point lay within 140 to 141 °C.
For the molecule `COCCN(C)CCc1c(-c2ccc(N)cc2)sc2c1c(=O)n(-c1ccc3c(c1)OCO3)c(=O)n2Cc1c(F)cccc1F`, the melting point fell in the range of 200 to 202 °C.
`O=C(N[C@@H](CSc1ccc(C(F)(F)F)cc1[N+](=O)[O-])C(=O)O)OCc1ccccc1` came in with a melting point of 150 to 153 °C.
`CS(=O)(=O)c1ccc(-c2coc(=O)n2-c2ccc(F)cc2)cc1` returned a melting point of 152 to 153 °C.
The molecule `Cn1cc(-c2cc(-c3c[nH]nc3-c3ccccn3)ccc2F)cn1` returned a melting point of 134 to 136 °C.
As to `O=C1c2ccccc2C(c2ccc(Cl)cc2)(c2c(O)cc(O)cc2O)N1Cc1ccc([N+](=O)[O-])cc1` (stereo unspecified), the melting point was in the range of 196 to 198 °C.
`CCOC(=O)C(CC)n1c(NC(=O)c2cccs2)nc2cc(C(=O)N(C)C3CCCCC3)ccc21` (stereo unspecified) registered a melting point of 82 to 84 °C.
Under `C=CCOc1ccc(C)c2c1C(=O)C1CCCCC21` (stereo unspecified) stands 106 to 107 °C.
As for `CCOC(=O)COc1ccc(OCc2ccccc2)cc1OCc1ccccc1`, the melting point fell in the range of 62 to 64 °C.
The molecule `CCOC(=O)/C=C(\C)Cl` yielded a melting point of 58 to 60 °C.
With `COc1ccc(Cc2cc(OC)c(OC)c(OC)c2)cc1`, the melting point fell in the range of 66 to 67 °C.
Molecule `CCCCCCCCCCCCN=C=S` returned a melting point of 75 to 80 °C.
On to `Cc1ccc2c(c1)c1cc(C(=O)c3ccccc3C(=O)O)ccc1n2CCC#N`, for which the melting point was 190 °C.
As to `CCc1cc(=O)c(C(=O)OC)c(CC)[nH]1`, the melting point was in the range of 124 to 127 °C.
`COc1ccc(Cl)cc1C(=O)CCCCCl` showed a melting point of 52 to 54 °C.
`Cc1ccnc2c1C(=O)CC(c1sc(Cl)cc1Cl)C2` (stereo unspecified) showed a melting point of 109 to 111 °C.
As for `CCOC(=O)C(=CNc1coc2ccc(Cl)cc2c1=O)C(=O)OCC`, the figure is 143 to 145 °C.
For the molecule `CCOC(=O)ON=C(N)c1cccc(Oc2ccc3c(c2)S(=O)(=O)N=C2CCCN23)c1`, the melting point is 101 to 105 °C.
`CCOc1nn(Cc2ccc(Cl)cc2Cl)cc1CCCOc1cc(CCC(=O)O)n(Cc2ccccc2)n1`: the melting point lay within 84 to 85 °C.
As for `CC1CC(=O)N(c2ccccc2)c2cc(Cl)ccc2N1C` (stereo unspecified), the figure is 113 to 114 °C; as for `O=c1ncc(Cl)cn1COCc1cccc(C(F)(F)F)c1`, 95 °C.
In turn, `CCOC(=O)C1OC1C(=O)N(C)C1CCCCC1` (stereo unspecified) registered a melting point of 52 to 55 °C.
As for `CCOc1ccc2c(c1)C(C)(c1cc(NC(=O)CN(C)C)ccc1Cl)C(=O)N2S(=O)(=O)c1ccc(C(=O)NC(C)(C)C)cc1OC` (stereo unspecified), the figure is 150 °C; as for `OC1(C#CC2(F)C=CC(c3ccccc3)=CC2)CN2CCC1CC2` (stereo unspecified), 232 to 233 °C; as for `COc1ccnc(C(C)Sc2nc3cc(OC(F)F)c(OC)cc3[nH]2)c1` (stereo unspecified), 128 to 131 °C.
Turning to `CCCN(CCC)CCCC1CCN(CCNC(=O)N2c3cc(C)ccc3C(=O)Nc3cccnc32)CC1`, the melting point came out at 195 °C.
`O=C(C=Cc1ccccc1)C(Cc1ccccc1)(Cc1ccccc1)C(=O)C=Cc1ccccc1` registered a melting point of 182 to 183 °C.
As for `Cn1nnc(-c2[nH]c3ccccc3c2Cl)n1`, the figure is 197 to 199 °C; as for `COC(=O)C#CC(=O)c1ccc(Cl)cc1`, 49 to 50 °C; as for `O=C(O)CNC(=O)c1ccc(C(=O)NS(=O)(=O)c2ccccc2)cn1`, 190 to 191 °C.
For `CC(C)C[C@H](NC(=O)C(S)[C@@H](N)Cc1ccccc1)C(=O)O` (stereo partly specified), the melting point is 96 to 105 °C.
Regarding `O=c1cc(C=Cc2ccc(O)cc2)oc(-c2ccccc2)c1`, the melting point lay within 198 to 201 °C.
As for `Cc1c(C)c(NC(=O)CC(C)(C)C)c2c(c1C)C(c1ccc(C(C)C)cc1)C(C)(C)O2` (stereo unspecified), the figure is 152 to 153 °C; as for `COC(=O)CNC(=O)c1cncc(F)c1`, 80 to 82 °C; as for `CCCc1nc2c(C)cc(C)nc2n1Cc1ccc2oc(-c3ccccc3C(=O)O)nc2c1`, 150 to 160 °C.
For `Cc1nc2cc3c(nc2o1)C(=O)OC3=O`, the melting point was 194 to 196 °C.
As for `CC(O)CN1CCNC1=S` (stereo unspecified), the figure is 101 to 102 °C; as for `COc1ccc2c(c1OC(C)=O)NC(OC)C1CCCN1C2=O` (stereo unspecified), 143 to 145 °C.
As to `CC(C)CCCC(C)CCCC(C)CCCC(C)(O)C(CO)NCCO` (stereo unspecified), the melting point is 49.1 to 50.2 °C.
As for `CCN1CC=C(CC(=O)NC2(c3ccc(C(F)(F)F)cc3)C(=O)Nc3cc(Cl)cc(Cl)c32)CC1` (single isomer, unassigned; (+)), the figure is 155 to 156 °C.
For the molecule `O=C(O)Cc1cc(Cl)cc(Cl)c1OCCc1ccccc1`, the melting point is 73 to 76 °C.
Molecule `COc1cc(OCCN2CCOCC2)ccc1/C=C/c1cc(/C=C/c2ccc3cc[nH]c3c2)n[nH]1` returned a melting point of 113 to 122 °C.
As for `C=C(CCCC(=O)N1CCC[C@@H](C(=O)OC(C)(C)C)N1)C(=O)O`, the melting point fell in the range of 86 to 88 °C.
As for `CCOC(=O)C(C)(NC(=O)CNC=O)C(=O)OCC`, the figure is 98 to 99 °C; as for `CCOC(=O)Nc1c(C(=O)c2cccc(Cl)c2)[nH]c2cc(Cl)ccc12`, 188 to 189 °C; as for `CC(=N)Nc1cccc(C#N)c1`, 228 to 230 °C.
With `COC(=O)CCCNC(=O)c1cc(O)ccc1O`, the melting point lay within 155 to 159 °C.
`CCc1cc(=O)c(I)c(CC)[nH]1` had a melting point of 225 to 227 °C.
As for `COc1cccc(C(F)(F)F)c1S(=O)(=O)Cl`, the figure is 86 to 88 °C.
`O=[N+]([O-])c1cc2nc(O)c(O)nc2cc1Br` showed a melting point greater than 300 °C.
As to `O=C(Nc1c(Cl)cncc1Cl)c1ccc(OC(F)F)c2oc3ccccc3c12`, the melting point came to 270 °C.
For `CCOC(=O)C1CCc2cc([N+](=O)[O-])ccc2O1` (stereo unspecified), the melting point worked out at 80.8 °C.
Molecule `CCN(CC)C(=O)CCC(=O)c1cccc(C)c1N` gave a melting point of 104 °C.
`COC(=O)[C@@](C)(CCC1=C(C)C(=O)C(C)=C(C)C1=O)OS(C)(=O)=O` registered a melting point of 112 to 114 °C.
Consider `CCCCCCCCC(=O)N(C)O`, for which the melting point was 29 °C.
Molecule `NC(=O)c1[nH]c2ccc(Cl)cc2c1S(=O)(=O)c1ccccc1Cl` gave a melting point of 267 °C.
`COc1ccc(N2CCN(n3c(C)n[nH]c3=O)CC2)cc1` displayed a melting point of 264 °C.
In the case of `COCOCC(=O)c1cnc(NC(=O)C(C)(C)C)cn1`, the melting point is 141 to 142 °C.
Consider `C=CCSc1c(O)cc(C)oc1=O`, for which the melting point lay in the range of 98 to 98.5 °C.
